Target: T1, HIV-1 protease (Q7S mutant form) (Human immunodeficiency virus type 1 group M subtype B, UniProt P04585, Q495S)
T1 construct: made in house
Experiment: HIV-1 Protease RET assay
Type: biochemical
Conditions: Ki, unit inferred
Experimental: Ki's for the inhibitors of HIV-1 protease were determined using a resonance energy transfer (RET) assay. […] This enzyme is first partially purified as inclusion bodies from cell lysate. It is then solublized in 8M urea and passed through a Q-Sepharose column (Pharmacia) for further purification. To refold this protein, samples containing Q7S is dialyzed into 50 mM sodium phosphate pH 7.0, 50 mM NaCl, 10 mM DTT, and 10% glycerol.
The commercially available peptide substrate (Molecular Probes Cat. # H-2930) RE(EDANS)SQNYPIVQK(DABCYL)R is used to assess activity and Ki's. This peptide is cleaved quantitatively by HIV-1 Pr at the Tyr-Pro bond. The EDANS fluorophore absorbs at 340 nm and emits at 490 nm. The reaction is carried out in a 96 well plate in a total volume of 100 µL and is run for 12 minutes at 37 C under steady-state conditions with 5 µM substrate and 2 nM active dimer enzyme concentration. The literature value Km for this substrate and enzyme is 103+/−8 µM (See Matayoshi, et al., “Novel Fluorogenic Substrates for Assaying Retroviral Proteases by Resonance Energy Transfer,” Science 247, 954 (1990)). The buffer for this reaction is 0.1M sodium acetate pH 4.8, 1M NaCl, 1 mM EDTA, 5 mM dithiothreitol, 10% dimethyl sulfoxide and 1 mg/ml bovine serum albumin. Inhibition curves are fit using the Morrison tight binding equation.

| SMILES | Ki [µM] |
| --- | --- |
| Cc1ccccc1CNC(=O)[C@@H]1N(C(=O)[C@@H](O)[C@H](Cc2ccccc2)NC(=O)CSc2c(C)cccc2C)CSC1(C)C | 0.422 |
| Cc1ccccc1CNC(=O)[C@H]1N(C(=O)[C@@H](O)[C@H](Cc2ccccc2)NC(=O)OC2CCC3CCCC3C2)CSC1(C)C (stereo partly shown) | 0.148 |
| Cc1ccccc1CNC(=O)[C@H]1N(C(=O)[C@@H](O)[C@H](Cc2ccccc2)NC(=O)Oc2ccc(Cl)cc2)CSC1(C)C | 0.468 |
| Cc1ccccc1CNC(=O)[C@H]1N(C(=O)[C@@H](O)[C@H](Cc2ccccc2)NC(=O)Oc2ccccc2)CSC1(C)C | 0.368 |
| Cc1ccccc1CNC(=O)[C@H]1N(C(=O)[C@@H](O)[C@H](Cc2ccccc2)NS(=O)(=O)c2ccccc2)CSC1(C)C | 0.152 |
| CC1(C)SCN(C(=O)[C@@H](O)[C@H](Cc2ccccc2)NC(=O)[C@@H]2CCCO2)[C@@H]1C(=O)NC[C@H]1CCCO1 | 0.03 |
| CC1(C)SCN(C(=O)[C@@H](O)[C@H](Cc2ccccc2)NC(=O)c2cccc3c2CCN3)[C@@H]1C(=O)NCc1cccs1 | 0.0068 |
| CC1(C)SCN(C(=O)[C@@H](O)[C@H](Cc2ccccc2)NC(=O)CSc2nc[nH]n2)[C@@H]1C(=O)NCc1cccs1 | 0.0139 |
| CC(C)(C)OC(=O)N[C@@H](Cc1ccccc1)[C@H](O)C(=O)N1CSC(C)(C)[C@H]1C(=O)NCc1ccccc1 | 0.021 |
| Cc1ccccc1CNC(=O)[C@H]1N(C(=O)[C@@H](O)[C@H](Cc2ccccc2)NC(=O)COc2cccc3ncccc23)CSC1(C)C | 0.0142 |
| Cc1ccccc1CNC(=O)[C@H]1N(C(=O)[C@@H](O)[C@H](Cc2ccccc2)NC(=O)COc2cccc3cnccc23)CSC1(C)C | 0.021 |
| CC(C)(C)OC(=O)N[C@@H](Cc1ccccc1)[C@H](O)C(=O)N1CSC(C)(C)C1C(=O)NCc1ccccc1Cl (stereo partly shown) | 0.02 |
| CC(C)(C)OC(=O)N[C@@H](Cc1ccccc1)[C@H](O)C(=O)N1CSC(C)(C)C1C(=O)NCc1c(F)cccc1F (stereo partly shown) | 0.054 |
| COc1ccc(CNC(=O)C2N(C(=O)[C@@H](O)[C@H](Cc3ccccc3)NC(=O)OC(C)(C)C)CSC2(C)C)cc1 (stereo partly shown) | 0.025 |
| Cc1ccccc1CNC(=O)[C@H]1N(C(=O)[C@@H](O)[C@H](Cc2ccccc2)NC(=O)COc2cccnc2Cl)CSC1(C)C | 0.0076 |
| Cc1ccccc1CNC(=O)[C@H]1N(C(=O)[C@@H](O)[C@H](Cc2ccccc2)NC(=O)COc2cccnc2C)CSC1(C)C | 0.017 |
| COc1ccc(CNC(=O)N[C@@H](Cc2ccccc2)[C@H](O)C(=O)N2CSC(C)(C)C2C(=O)NCc2ccc(OC)cc2)cc1 (stereo partly shown) | 0.0078 |
| COc1cccc(CNC(=O)[C@H]2N(C(=O)[C@@H](O)[C@H](Cc3ccccc3)NC(=O)C=C(C)C)CSC2(C)C)c1 | 0.125 |
| CC(C)=CC(=O)N[C@@H](Cc1ccccc1)[C@H](O)C(=O)N1CSC(C)(C)[C@H]1C(=O)NCc1ccccc1C | 0.0061 |
| CCc1cccc(CNC(=O)[C@H]2N(C(=O)[C@@H](O)[C@H](Cc3ccccc3)NC(=O)NCc3ccc(OC)cc3)CSC2(C)C)c1 | 0.059 |
| C#CCOC(=O)N[C@@H](Cc1ccccc1)[C@H](O)C(=O)N1CSC(C)(C)[C@H]1C(=O)NCc1cccc(CC)c1 | 0.0038 |
| COc1cccc(CNC(=O)[C@H]2N(C(=O)[C@@H](O)[C@H](Cc3ccccc3)NC(=O)OC(C)(C)C)CSC2(C)C)c1 | 0.068 |

| SMILES | Ki [µM] |
| --- | --- |
| Cc1ccccc1CNC(=O)[C@H]1N(C(=O)[C@@H](O)[C@H](Cc2ccccc2)NC(=O)COc2cc(N(C)C)ccc2C)CSC1(C)C | 0.0081 |
| Cc1ccccc1CNC(=O)C1N(C(=O)[C@@H](O)C(Cc2ccccc2)NC(=O)C(C)(C)C)CSC1(C)C (stereo partly shown) | 0.047 |
| C/C(=C/c1ccccc1)C(=O)N[C@@H](Cc1ccccc1)[C@H](O)C(=O)N1CSC(C)(C)[C@H]1C(=O)NCc1ccccc1C | 0.005 |
| Cc1ccccc1CNC(=O)C1N(C(=O)[C@@H](O)C(Cc2ccccc2)NC(=O)/C=C/c2c(Cl)cccc2Cl)CSC1(C)C (stereo partly shown) | 0.0119 |
| Cc1ccccc1CNC(=O)C1N(C(=O)[C@@H](O)[C@H](Cc2ccccc2)NC(=O)c2ccc3ccncc3c2)CSC1(C)C (stereo partly shown) | 0.0034 |
| Cc1ccccc1CNC(=O)C1N(C(=O)[C@@H](O)C(Cc2ccccc2)NC(=O)c2cnc3ccccc3c2)CSC1(C)C (stereo partly shown) | 0.0181 |
| Cc1ccccc1CCC(=O)C1N(C(=O)[C@@H](O)C(Cc2ccccc2)NC(=O)C2CCC2)CSC1(C)C (stereo partly shown) | 0.0044 |
| Cc1ccccc1CNC(=O)[C@H]1N(C(=O)[C@@H](O)[C@H](Cc2ccccc2)NC(=O)CNc2ccc(F)cc2)CSC1(C)C | 0.006 |
| Cc1ccccc1CCC(=O)C1N(C(=O)[C@@H](O)C(Cc2ccccc2)NC(=O)NCc2ccc(Cl)cc2)CSC1(C)C (stereo partly shown) | 0.0082 |
| C#CC(C)OC(=O)N[C@@H](Cc1ccccc1)[C@H](O)C(=O)N1CSC(C)(C)[C@H]1C(=O)NCc1ccccc1C (stereo partly shown) | 0.0054 |
| Cc1ccccc1CNC(=O)C1N(C(=O)[C@@H](O)C(Cc2ccccc2)NC(=O)OCc2cccnc2)CSC1(C)C (stereo partly shown) | 0.027 |
| C=CC(CC)OC(=O)N[C@@H](Cc1ccccc1)[C@H](O)C(=O)N1CSC(C)(C)[C@H]1C(=O)NCc1ccccc1C (stereo partly shown) | 0.092 |
| CC#CC(C)OC(=O)NC(Cc1ccccc1)[C@H](O)C(=O)N1CSC(C)(C)[C@H]1C(=O)NCc1ccccc1C (stereo partly shown) | 0.029 |
| Cc1c(O)cccc1C(=O)N[C@@H](Cc1ccccc1)[C@H](O)C(=O)N1CSC(C)(C)[C@H]1C(=O)NCc1cc(Cl)nc(Cl)c1 | 0.047 |
| Cc1ccccc1CNC(=O)[C@H]1N(C(=O)[C@@H](O)[C@H](Cc2ccccc2)NC(=O)/C=C/c2c(C)cccc2C)CSC1(C)C | 0.099 |
| Cc1ccccc1CNC(=O)[C@H]1N(C(=O)[C@@H](O)[C@H](Cc2ccccc2)NC(=O)C2CCNCC2)CSC1(C)C | 0.045 |
| Cc1ccccc1CNC(=O)[C@H]1N(C(=O)[C@@H](O)[C@H](Cc2ccccc2)NC(=O)CC(C)N)CSC1(C)C (stereo partly shown) | 0.108 |
| Cc1ccccc1CNC(=O)[C@H]1N(C(=O)[C@@H](O)[C@H](Cc2ccccc2)NC(=O)CC(C)NC(=O)OC(C)(C)C)CSC1(C)C (stereo partly shown) | 0.122 |
| Cc1ccccc1CNC(=O)[C@H]1N(C(=O)[C@@H](O)[C@H](Cc2ccccc2)NC(=O)C2=CCCCC2)CSC1(C)C | 0.0047 |
| C/C=C(/C)C(=O)N[C@@H](Cc1ccccc1)[C@H](O)C(=O)N1CSC(C)(C)[C@H]1C(=O)NCc1ccccc1C | 0.0076 |
| Cc1ccccc1CNC(=O)[C@H]1N(C(=O)[C@@H](O)[C@H](Cc2ccccc2)NC(=O)Cc2c(F)cccc2F)CSC1(C)C | 0.072 |
| Cc1ccccc1CNC(=O)[C@H]1N(C(=O)[C@@H](O)[C@H](Cc2ccccc2)NC(=O)C2CCCNC2)CSC1(C)C (stereo partly shown) | 0.0115 |

| SMILES | Ki [µM] |
| --- | --- |
| Cc1ccccc1CNC(=O)[C@H]1N(C(=O)[C@@H](O)[C@H](Cc2ccccc2)NC(=O)C2CCCN(C(=O)OC(C)(C)C)C2)CSC1(C)C (stereo partly shown) | 0.117 |
| Cc1ccccc1CNC(=O)[C@@H]1CSCN1C(=O)[C@@H](O)[C@H](Cc1ccccc1)NC(=O)CCc1c(C)cccc1C | 0.02 |
| Cc1ccccc1CNC(=O)[C@@H]1CC(F)(F)CN1C(=O)[C@@H](O)[C@H](Cc1ccccc1)NC(=O)c1cccn1C | 0.059 |
| Cc1c(O)cccc1C(=O)N[C@@H](Cc1ccccc1)[C@H](O)C(=O)N1CSC(C)(C)[C@H]1C(=O)NC1(C#N)CC1 | 0.0062 |
| Cc1cccc(C)c1CNC(=O)[C@@H]1C[C@@H]2CCCC[C@@H]2CC1C(=O)[C@@H](O)[C@H](Cc1ccccc1)NC(=O)c1cccc(O)c1C (stereo partly shown) | 0.083 |
| Cc1ccccc1CNC(=O)[C@@H]1N(C(=O)[C@@H](O)[C@H](Cc2ccccc2)NC(=O)c2cccc(O)c2C)CSC12CCCCC2 | 0.011 |
| CCCNC(=O)[C@@H]1CC(F)(F)CN1C(=O)[C@@H](O)[C@H](Cc1ccccc1)NC(=O)O[C@H]1CCOC1 | 0.042 |
| CCCNC(=O)[C@@H]1CC(F)(F)CN1C(=O)[C@@H](O)[C@H](Cc1ccccc1)NC(=O)c1ccc(C)c(O)c1C | 0.108 |
| CCNC(=O)C1c2ccccc2CN1C(=O)[C@@H](O)[C@H](Cc1ccccc1)NC(=O)c1c(C)noc1C (stereo partly shown) | 0.084 |
| Cc1ccccc1CNC(=O)[C@H]1N(C(=O)[C@@H](O)[C@H](Cc2ccccc2)NC(=O)CCN)CSC1(C)C | 0.156 |
| Cc1ccccc1CNC(=O)[C@H]1N(C(=O)[C@@H](O)[C@H](Cc2ccccc2)NC(=O)/C=C/c2ccco2)CSC1(C)C | 0.06 |
| CCCNC(=O)C1CC(F)(F)CN1C(=O)[C@@H](O)[C@H](Cc1ccccc1)NC(=O)c1cccc(OC(C)=O)c1C (stereo partly shown) | 0.085 |
| Cc1ccccc1CNC(=O)[C@H]1N(C(=O)[C@@H](O)[C@H](Cc2ccccc2)NC(=O)CNC(=O)OC(C)(C)C)CSC1(C)C | 0.088 |
| Cc1ccccc1CNC(=O)[C@H]1N(C(=O)[C@@H](O)[C@H](Cc2ccccc2)NC(=O)/C=C/c2cccnc2)CSC1(C)C | 0.0099 |
| Cc1ccccc1CNC(=O)[C@H]1N(C(=O)[C@@H](O)[C@H](Cc2ccccc2)NC(=O)C(C)CNC(=O)OC(C)(C)C)CSC1(C)C (stereo partly shown) | 0.052 |
| Cc1ccccc1CNC(=O)[C@@H]1N(C(=O)[C@@H](O)[C@H](Cc2ccccc2)NC(=O)c2cccc(O)c2C)CSC12CCC2 | 0.03 |
| Cc1c(C(=O)N[C@@H](Cc2ccccc2)[C@H](O)C(=O)N2CSC(C)(C)[C@H]2C(=O)N[C@@H]2C=CCCC2)ccc(F)c1O | 0.0173 |
| Cc1c(O)cccc1C(=O)N[C@@H](Cc1ccccc1)[C@H](O)C(=O)C1CCC2(CCCC2)[C@@H]1C(=O)NC1=CCCCC1 (stereo partly shown) | 0.053 |
| Cc1c(O)cccc1C(=O)N[C@@H](Cc1ccccc1)[C@H](O)C(=O)N1CSC2(CCC2)[C@@H]1C(=O)N[C@@H]1C=CCCC1 | 0.0129 |
| Cc1c(O)cccc1C(=O)N[C@@H](Cc1ccccc1)[C@H](O)C(=O)N1CSC(C)(C)C1C(=O)NCCc1ccccn1 (stereo partly shown) | 0.134 |

From US7094909B2, “HIV protease inhibitors, compositions containing the same, their pharmaceutical uses and materials for their synthesis” (priority 2001, dated 2006)
